Series [1] addresses T1, Ectonucleotide pyrophosphatase/phosphodiesterase family member 1 (Homo sapiens, UniProt P22413).
T1 sequence (P22413 whole entry): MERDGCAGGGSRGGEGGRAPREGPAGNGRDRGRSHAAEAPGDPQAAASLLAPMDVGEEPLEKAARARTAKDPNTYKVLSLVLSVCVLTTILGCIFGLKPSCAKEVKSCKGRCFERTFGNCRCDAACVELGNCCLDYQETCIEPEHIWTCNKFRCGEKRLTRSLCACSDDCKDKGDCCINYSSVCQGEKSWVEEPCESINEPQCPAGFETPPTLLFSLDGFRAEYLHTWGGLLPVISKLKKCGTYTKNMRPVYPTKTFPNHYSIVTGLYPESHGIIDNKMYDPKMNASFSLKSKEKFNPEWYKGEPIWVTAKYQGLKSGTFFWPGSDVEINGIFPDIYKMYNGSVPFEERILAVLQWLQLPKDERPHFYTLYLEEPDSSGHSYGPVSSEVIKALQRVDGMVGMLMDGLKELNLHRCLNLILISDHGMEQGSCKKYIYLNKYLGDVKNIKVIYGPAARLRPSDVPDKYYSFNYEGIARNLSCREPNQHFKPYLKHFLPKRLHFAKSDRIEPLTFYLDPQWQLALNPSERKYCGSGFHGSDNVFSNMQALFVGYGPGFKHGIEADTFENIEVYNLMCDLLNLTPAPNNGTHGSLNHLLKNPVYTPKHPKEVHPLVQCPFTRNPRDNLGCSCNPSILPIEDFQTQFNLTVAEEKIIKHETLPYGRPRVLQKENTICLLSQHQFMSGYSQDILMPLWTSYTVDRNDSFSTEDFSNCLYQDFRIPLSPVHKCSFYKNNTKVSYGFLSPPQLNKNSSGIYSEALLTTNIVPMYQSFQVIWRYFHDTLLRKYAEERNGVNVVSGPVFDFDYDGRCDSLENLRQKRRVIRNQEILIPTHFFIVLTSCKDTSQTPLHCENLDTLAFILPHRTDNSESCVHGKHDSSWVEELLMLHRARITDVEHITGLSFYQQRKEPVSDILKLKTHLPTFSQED
The experiment in a line: Inhibition of full-length human NPP-1 expressed in baculovirus infected Sf9 cells using p-Nph5-TMP as substrate after 60 mins by colorimetric assay.

In series [2] the target is T2, Ectonucleotide pyrophosphatase/phosphodiesterase family member 3 (Homo sapiens) (UniProt O14638).
T2 sequence (whole entry): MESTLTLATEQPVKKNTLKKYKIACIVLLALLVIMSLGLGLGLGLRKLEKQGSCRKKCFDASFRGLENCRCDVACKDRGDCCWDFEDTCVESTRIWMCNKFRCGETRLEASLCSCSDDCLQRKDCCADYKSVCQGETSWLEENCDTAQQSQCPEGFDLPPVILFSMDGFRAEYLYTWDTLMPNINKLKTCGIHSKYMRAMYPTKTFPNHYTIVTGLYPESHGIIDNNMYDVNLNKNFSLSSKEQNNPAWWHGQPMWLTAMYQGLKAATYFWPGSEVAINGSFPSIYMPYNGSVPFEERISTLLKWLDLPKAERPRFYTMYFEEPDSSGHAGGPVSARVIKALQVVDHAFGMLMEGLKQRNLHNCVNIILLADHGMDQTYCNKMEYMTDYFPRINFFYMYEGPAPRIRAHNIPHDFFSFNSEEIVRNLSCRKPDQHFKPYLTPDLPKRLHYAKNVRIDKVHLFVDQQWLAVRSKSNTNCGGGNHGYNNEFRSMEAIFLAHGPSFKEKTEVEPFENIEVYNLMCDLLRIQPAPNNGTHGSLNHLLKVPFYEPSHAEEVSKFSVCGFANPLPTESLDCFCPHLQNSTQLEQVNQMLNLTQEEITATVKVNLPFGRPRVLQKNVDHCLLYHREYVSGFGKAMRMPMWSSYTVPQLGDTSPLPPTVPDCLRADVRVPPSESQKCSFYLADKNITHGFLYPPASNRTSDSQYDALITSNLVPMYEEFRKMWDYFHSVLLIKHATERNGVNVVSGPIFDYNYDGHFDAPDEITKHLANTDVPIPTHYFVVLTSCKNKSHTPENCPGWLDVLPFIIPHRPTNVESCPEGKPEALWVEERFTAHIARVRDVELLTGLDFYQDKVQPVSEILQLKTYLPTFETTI
In words: Inhibition of human NPP3 expressed in COS7 cell membranes at 100 uM using pNP-TMP as substrate preincubated for 3 mins followed by substrate addition and measured after 15 mins relative to control.

The target in series [3] is P2Y purinoceptor 4 (Homo sapiens) (UniProt P51582). The experiment in a line: Agonist activity at human P2Y4 receptor expressed in AD293 cells assessed as inositol-1-phosphate accumulation at 0.1 to 100 uM. The series is classed as functional, cell-based.
Series [4] concerns the target P2Y purinoceptor 2 (Homo sapiens) (UniProt P41231). In words: Agonist activity at human P2Y2 receptor expressed in AD293 cells assessed as inositol-1-phosphate accumulation at 100 uM. The format is functional, cell-based.
Series [5] has the same target. In words: Antagonist activity at human P2Y2 receptor expressed in AD293 cells assessed as inhibition of UTP-induced inositol-1-phosphate accumulation at 100 uM. The format is functional, cell-based.
Series [6] in a line: Cytotoxicity against human primary chondrocytes at 100 uM after 24 hrs by XTT assay.
In series [7] the target is T1, Ectonucleotide pyrophosphatase/phosphodiesterase family member 1. The experiment in a line: Inhibition of human NPP1 expressed in COS7 cell membranes using pNP-TMP as substrate preincubated for 3 mins followed by substrate addition and measured after 15 mins by Dixon plot analysis.
Series [8] addresses T3, Ectonucleotide pyrophosphatase/phosphodiesterase family member 1 (Homo sapiens) (UniProt P22413).
T3 sequence (whole entry): T1 sequence (P22413 whole entry)
The experiment in a line: Inhibition of human NPP1 expressed in COS7 cell membranes at 100 uM using pNP-TMP as substrate preincubated for 3 mins followed by substrate addition and measured after 15 mins relative to control.

The species entered for a further series is Homo sapiens. In words: Inhibition of alkaline phosphatase in human primary chondrocyte at 100 uM using p-nitrophenyl phosphate as substrate after 30 mins by […] relative to control.
In series [9] the target is P2Y purinoceptor 6 (Homo sapiens) (UniProt Q15077). In words: Antagonist activity at human P2Y6 receptor expressed in AD293 cells assessed as inhibition of UDP-induced inositol-1-phosphate accumulation at 0.1 to 100 uM. The series is classed as functional, cell-based.
The target in series [10] is P2Y purinoceptor 4 (Homo sapiens) (UniProt P51582). The experiment in a line: Antagonist activity at human P2Y4 receptor expressed in AD293 cells assessed as inhibition of UTP-induced inositol-1-phosphate accumulation at 0.1 to 100 uM. The series is classed as functional, cell-based.
The target in series [11] is P2Y purinoceptor 6 (Homo sapiens) (UniProt Q15077). The experiment in a line: Agonist activity at human P2Y6 receptor expressed in AD293 cells assessed as inositol-1-phosphate accumulation at 100 uM. The format is functional, cell-based.

SMILES strings stand for the structures. Activity calls are given as the source filed them. No cut-off for these calls is given here. A value given as a limit tells only on which side of the number the result lay.

Chain of P2Y purinoceptor 4 (Homo sapiens) (P51582 whole entry): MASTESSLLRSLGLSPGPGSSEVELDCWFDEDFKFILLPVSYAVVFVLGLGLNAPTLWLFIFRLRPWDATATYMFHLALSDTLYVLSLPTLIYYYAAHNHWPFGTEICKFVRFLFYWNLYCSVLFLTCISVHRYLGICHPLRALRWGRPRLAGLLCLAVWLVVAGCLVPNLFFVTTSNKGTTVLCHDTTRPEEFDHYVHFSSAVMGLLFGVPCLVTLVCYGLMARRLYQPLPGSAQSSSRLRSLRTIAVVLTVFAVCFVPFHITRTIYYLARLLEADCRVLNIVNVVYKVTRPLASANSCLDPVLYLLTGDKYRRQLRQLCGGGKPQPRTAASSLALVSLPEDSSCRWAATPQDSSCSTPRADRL
Chain of P2Y purinoceptor 2 (Homo sapiens) (P41231 whole entry): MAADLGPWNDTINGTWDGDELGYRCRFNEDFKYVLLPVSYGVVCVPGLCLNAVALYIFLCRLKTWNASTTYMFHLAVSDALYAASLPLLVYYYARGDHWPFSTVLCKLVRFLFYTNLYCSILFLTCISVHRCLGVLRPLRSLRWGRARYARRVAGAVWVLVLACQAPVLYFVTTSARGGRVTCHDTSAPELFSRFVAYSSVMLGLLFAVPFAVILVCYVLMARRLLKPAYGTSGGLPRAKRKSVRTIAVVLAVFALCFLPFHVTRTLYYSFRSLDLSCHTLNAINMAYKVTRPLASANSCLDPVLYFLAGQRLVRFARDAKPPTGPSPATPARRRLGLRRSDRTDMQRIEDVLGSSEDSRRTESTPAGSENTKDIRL
Chain of P2Y purinoceptor 6 (Homo sapiens) (Q15077 whole entry): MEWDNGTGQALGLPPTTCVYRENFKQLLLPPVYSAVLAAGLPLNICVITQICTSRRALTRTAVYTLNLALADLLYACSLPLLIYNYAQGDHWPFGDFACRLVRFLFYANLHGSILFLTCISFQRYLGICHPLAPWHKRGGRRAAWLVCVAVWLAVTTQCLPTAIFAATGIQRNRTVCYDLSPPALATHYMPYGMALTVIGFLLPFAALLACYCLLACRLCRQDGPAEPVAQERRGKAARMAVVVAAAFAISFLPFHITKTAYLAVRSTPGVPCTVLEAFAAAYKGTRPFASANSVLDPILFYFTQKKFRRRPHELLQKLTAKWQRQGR

In turn, `Nc1ncnc2c1ncn2COCCOP(=O)(O)CP(=O)(O)O` registered a Ki in [1] of 16.3 µM.
With `O=c1ccn(COCCOP(=S)(S)OP(=O)(O)OP(=O)(O)O)c(=O)[nH]1` (stereo not drawn), the figures for the inhibition (in series [2]; in series [8]; in the series filed under Homo sapiens) were 31%, 96 to 98% and below 10%, respectively. Moreover, the result in [3] and in [4] was inactive. In addition, the inhibition entry in series [5], in [9] and in series [10] was “inactive” in each case. The Activity result in [6] is “Non-Toxic”. The same compound yielded a Ki in series [7] of 1.28 µM. The outcome in series [11] was Active.
`O=c1ccn(COCCOP(=S)(S)OP(=O)(O)O)c(=O)[nH]1` (stereo not drawn): the inhibition was 30% in [2], 96 to 98% in series [8] and below 10% in the series filed under Homo sapiens. For the same compound, the result in [3] and in series [4] was inactive. Also, the inhibition entry in [5], in series [9] and in series [10] was “inactive” in each case. In addition, the Activity result in [6] was “Non-Toxic”. This compound also registered a Ki in series [7] of 2.83 µM. The outcome in series [11] was Active.

For the origin of these results see ChEMBL document CHEMBL4311993, “Structure-activity relationship study of NPP1 inhibitors based on uracil-N1-(methoxy)ethyl-β-phosphate scaffold” (Eur J Med Chem, 2019).
